Reference: article PMC11904948, “Peptide‐Drug Conjugate for Therapeutic Reprogramming of Tumor‐Associated Macrophages in Breast Cancer” (Advanced Science, 2025)

How the values were obtained:
Format in all cases: cell-based
[1] = tested on: mouse bone marrow‐derived macrophages (BMDM); test: Phagocytosis of live 4T1-GFP cancer cells by BMDM; settings: Balb/c BMDM, 10 µM 4 h, washed, 48 h, then 2 h with 4T1-GFP cells, n = 3
Method: We then analyzed if MACTIDE‐V affected the phagocytic activity of BMDM in vitro.
For the live 4T1‐GFP phagocytosis assay, 4T1‐GFP cells were cultured in RPMI1640 supplemented with 10% (v/v) FBS and 1% penicillin/streptomycin at 37 °C, 5% CO2. BMDM were seeded on Ibidi plates (Ibidi, cat# 80821) and at day 5 were treated with MACTIDE and conjugates as previously described (10 µM during 4h, followed by washing with media). Then, 48h later, the BMDM were incubated for 2 h with 2×10^5 4T1‐GFP cells (the area of the wells is 1 cm^2). Then, the supernatant was removed, and the wells were washed with media and then with PBS. Then, the cells were fixed with ice‐cold acetone for 10 min. Fixed cells were then washed with PBS, permeabilized with PBS‐0.2% Triton for 10 min and washed with PBS‐T (PBS+0.05% Tween‐20 (v/v)), and then incubated with blocking buffer (5% BSA (w/v), 5% FBS (v/v) in PBS‐T) for 1 h at room temperature. […] The mean GFP signal intensity was quantified from the images using ImageJ and normalized to the amount of DAPI^+ nuclei.
Figure S4. […] Scale bars= 50µm.The mean GFP signal intensity was quantified from the images using ImageJ and normalized to the amount of DAPI^+ nuclei (right panel). […]

[2] = tested on: LPS + IFNγ‐stimulated primary human macrophages; test: In vitro photodynamic therapy, MTT viability, LPS + IFNγ-stimulated macrophages; settings: 30 µM 1 h 37 °C, washed
From the text: (§1) We next coupled MACTIDE to the photosensitizer Verteporfin, intending to deplete CD206^+ TAM using photodynamic therapy (PDT). To this end, carboxy‐Verteporfin was coupled to the N‐terminus of MACTIDE, a construct referred to as “MACTIDE‐V” (Figure 5A). We performed in vitro photodynamic therapy with MACTIDE‐V on primary human macrophages stimulated with IL‐4 or LPS + IFNγ.
(§2) Figure 5 In vitro and in vivo photodynamic therapy with MACTIDE‐V. A) Structure of MACTIDE‐V. B) MACTIDE‐V, CtrlPep‐V, and DOX were incubated with primary human macrophages (obtained from monocytes derived from human blood buffy coat) at 30 µM for 1 h at 37 °C, followed by 2 washes with media. Then, the groups shown in pink were irradiated with 10 J cm^−2 (irradiance: 170 mW cm^−2, spot diameter: 0.5 cm). […] Peptide‐V conjugates were administered i.p. at a dose of 30 nmol (1 mg Kg^−1 in Verteporfin). For the irradiated groups, 4 h after administration of conjugates or PBS, the mice were irradiated with 100 J cm^−2; shown is primary tumor volume progression during treatment. Gray arrows indicate injection days. D) Bodyweight during the treatment as % of the initial one. E) Representative mIHC images of PBS, CtrlPep‐V, and MACTIDE‐V‐treated tumors, 20X magnification, scale bar = 100 µm, white triangles point to Foxp3^+ cells. F) CD8^+ T cells, CD4^+ T cells, and Treg density, n = 6 mice/group, with every dot representing the mean cell density of each tumor obtained from 20 images. G) CD8^+ T cells density in CK8^+‐dense tumor regions. n = 5 mice/group, with every dot representing the mean cell density of each tumor obtained from 20 images. Median ± interquartile range. One‐way ANOVA with multiple comparisons, ^* p ≤ 0.05, ^** p ≤ 0.01.
(§3) Human peripheral mononuclear cells (PBMCs) were purified from human blood buffy coats following the protocol described previously.^[ [24] ^] […] Crystal formation was monitored every 20–30 min to not oversaturate the absorbance values.

[3] = tested on: IL‐4‐stimulated primary human macrophages; test: In vitro photodynamic therapy, MTT viability, IL-4-stimulated macrophages; settings: 30 µM 1 h 37 °C, washed
From the text: as §1, §2, §3

[4] = with or without 10 J cm^−2, 48 h
[5] = irradiated 10 J cm^−2 (689 nm), 48 h, n = 6

| Substance | phagocytosis of live 4T1 cancer cells labeled with GFP [1] | toxicity with and without irradiation [2, 4] | toxicity with and without irradiation [3, 4] | macrophages depleted, irradiated [2, 5] [%] | toxicity, non‐irradiated ([2]; no irradiation, 48 h, n = 6) | macrophages depleted, irradiated [3, 5] [%] | toxicity, non‐irradiated ([3]; no irradiation, 48 h, n = 6) |
| --- | --- | --- | --- | --- | --- | --- | --- |
| Vert‐Ahx‐AKPCGS‐OH [CtrlPep‐V, reference compound] | negligible phagocytosis | no toxicity | no toxicity | – | – | – | – |
| Vert‐Ahx‐G(CTKSIPPIC)SPGAK‐OH (disulfide) [MACTIDE‐V] | cancer cell phagocytosis only in the MACTIDE‐V treated BMDM | – | – | 40 | no toxicity | 80 | no toxicity |
